In US20130189320A1, “METHOD OF PREPARING A CONTROLLED RELEASE PARTICLE OF SOY ISOFLAVONE WITH BIODEGRADABLE POLYMER USING A SUPERCRITICAL FLUID EXTRACTION OF EMULSION (SFEE) PROCESS” (Nano and Advanced Materials Institute Limited, priority 2012, published 2013):

Legend:
[1] = in vitro drug release study, aqueous medium containing 1% Tween 80; assay type: physicochemical; details: 24-hour period, FIG. 3
Text: In the drug release study, an aqueous medium containing 1% Tween 80 is used to re-suspend the genistein-containing PLGA particles or the raw genistein. The cumulative release percentage of the encapsulated genistein from the PLGA coated particles and that of the raw genistein without PLGA for a 24-hour period is shown in FIG. 3. […] That may be due to the presence of free and weakly bound drug on the surface of particulate carriers. […] In FIG. 3, the encapsulated genistein from the PLGA coated particles has a cumulative release percentage of below 20% within the first 24 hours while the raw genistein has over 40% of release over the 24-hour period. From this in vitro study, it could be said that the extended release profile of genistein-containing PLGA particles can increase the chance of genistein to be utilized in human body, which further leads to an improved bioavailability. The slower the release rate is, more available active ingredients are released to a specific site of action.

[2] = particle morphology and size under scanning electron microscope (SEM); assay type: physicochemical
Text: It appears from the SEM images that the particle of genistein with PLGA has a nearly spherical shape and an average size of less than 1 μm. In comparison, the raw genistein is rectangular rod-shaped and the width (i.e., the shortest side of the rectangular rod-shaped raw genistein) is about 10 μm. PLGA matrix can protect genistein from degradation in the gastrointestinal tract and also from first-pass metabolism in the liver. Meanwhile, the nearly spherical shape of the genistein particle with the size less than 1 μm has a larger surface area to favor the interaction between the particle and the target cell in order to increase the chance of localizing on the target cell and delivering the genistein encapsulated in the particle in a controlled release manner.

Question: Which “cumulative release percentage of genistein” value [1] does the source give for `O=c1c(-c2ccc(O)cc2)coc2cc(O)cc(O)c12` [raw genistein, genistein] here?
Answer: over 40%

Question: What about the “width (shortest side of rectangular rod-shaped particle)” value [2] of the same compound?
Answer: about 10 μm
